Series [1] concerns HT-29. The series is described as follows: In vitro radiometric (BACTEC) growth inhibition of human tumor cell line HT-29 (colon). In kind it is cell-based. Conditions: for viability at 10 µg/mL: 10 μg/ml. An excerpt:
(§1) In vitro activity against certain human tumor cell lines. CELL LINES: Eight different established human cell lines (CALU (lung), COLO320 (colon), H578St (breast), HT-29 (colon), MCF-7 (breast), OM-1 (colon), SKLU (lung), and SKMES (lung) and two control cell lines (bone marrow cell lines and/or fibroblasts) were utilized. All cell lines were obtained from the Tumor Cloning Laboratory, Institute for Drug Development, Cancer Therapy and Research Center, San Antonio, Tex. All cell lines grew as monolayers in the appropriate culture medium supplemented with heat-inactivated calf serum. All reagents were obtained from Grand Island Biological Co., Grand Island, N.Y.
(§2) The iv formulations of the compounds of the present invention were prepared with sterile buffered saline and stored at -70° C. until required for testing.
(§3) Following trypsinization, tumor cells were suspended in tissue culture medium and exposed to the antitumor agents continuously at three different concentrations: 10, 1 and 0.1 μg/ml.
(§4) RADIOMETRIC MEASUREMENT OF GROWTH INHIBITION: Growth inhibition was assessed with the BACTEC System 460 (Johnston Laboratories, Towson, Md.) after addition of the antitumor agent to the cells in the respective growth medium containing ^14 C-glucose at a final concentration of 2 μCi/ml.
(§5) Two mls of the tumor cell suspension containing radioactive glucose were seeded into sterile, disposable 15 ml vials by injection through self-sealing rubber-aluminum caps. […] The seeded vials were then incubated at 37° C. Measurement of the release of ^14 CO2 resulting from the metabolism of ^14 C-glucose were performed on days 6, 9, 12, and 15 in the BACTEC instrument. This instrument flushes the ^14 CO2 containing air out of the vials into an ionization chamber that converts dpm to growth index values. […] Each data point represents triplicate values.
(§6) All compounds were compared on an equimilimolar level.
(§7) All compounds were dosed on an equimilimolar basis. […] [formula] A therapeutic ratio of <80% is considered active. In Vivo Evaluation

Series [2] in a line: In vitro survival of control bone marrow cells exposed to compound (Table I). In kind it is cell-based. Conditions: human, 10 μg/ml.
Text: as §1
IN VITRO EXPOSURE OF TUMOR CELLS TO COMPOUNDS: Stock solutions of intravenous (iv) formulations of certain of the compounds of the present invention (as shown in Table I below), as well as intravenous formulations of 5-FU (control) were used. The iv formulations of the compounds of the present invention were prepared with sterile buffered saline and stored at -70° C. until required for testing.
as §3
RADIOMETRIC MEASUREMENT OF GROWTH INHIBITION: Growth inhibition was assessed with the BACTEC System 460 (Johnston Laboratories, Towson, Md.) after addition of the antitumor agent to the cells in the respective growth medium containing ^14 C-glucose at a final concentration of 2 μCi/ml. (See generally, C. Arteaga, et al., A Radiometric Method for Evaluation of Chemotherapy Sensitivity: Results of Screening a Panel of Human Breast Cancer Cell Lines, Cancer Research, 47, 6248-6253, (1987).)
Two mls of the tumor cell suspension containing radioactive glucose were seeded into sterile, disposable 15 ml vials by injection through self-sealing rubber-aluminum caps. […] The seeded vials were then incubated at 37° C. Measurement of the release of ^14 CO2 resulting from the metabolism of ^14 C-glucose were performed on days 6, 9, 12, and 15 in the BACTEC instrument. This instrument flushes the ^14 CO2 containing air out of the vials into an ionization chamber that converts dpm to growth index values. Chemotherapy sensitivity was calculated by comparing the growth index values of drug-treated vials to that observed in control vials. Each data point represents triplicate values.
as §6
The data presented in Table I are compared to results achieved with 5-FU as the control. All compounds were dosed on an equimilimolar basis. Inhibitory concentration (IC 50) is defined as the concentration required to kill 50% of the untreated cancer cells. Although the IC 50 of certain of the compounds listed in Table I may be higher than that for 5-FU (the control), the compounds of the present invention are generally less toxic to normal cells such as bone marrow or fibroblasts. […] Additionally, because of their lower toxicity to normal cells, it is anticipated that the present compounds may be dosed at a higher rate to selectively increase toxicity to the cancer cells. In this regard, a therapeutic ratio for a given compound is typically determined by the following calculation. [formula] A therapeutic ratio of <80% is considered active. In Vivo Evaluation

The subject of series [3] is HS578T. The series is described as follows: In vitro radiometric (BACTEC) growth inhibition of human tumor cell line HS578T (breast). The format is cell-based. Conditions: Hs-578T; for viability at 10 µg/mL: 10 μg/ml, read-out: % survival tumor.
Text: as §1, §2, §3, §4, §5, §6, §7

Series [4] concerns SKLU. The series can be described thus: In vitro radiometric (BACTEC) growth inhibition of human tumor cell line SKLU (lung). The format is cell-based. Conditions: for viability at 10 µg/mL: 10 μg/ml.
Text: as §1, §2, §3, §4, §5, §6, §7

For series [5], the system named is MCF-7. The series can be described thus: In vitro radiometric (BACTEC) growth inhibition of human tumor cell line MCF-7 (breast). In kind it is cell-based. The conditions noted are these: for viability at 10 µg/mL: MCF7, MCF-7, 10 μg/ml.
Text: as §1, §2, §3, §4, §5, §6, §7

For series [6], the system named is HS578T. The series is described as follows: In vitro radiometric (BACTEC) growth inhibition of human tumor cell line HS578T (breast). The format is cell-based. The conditions noted are these: Hs-578T, 6 μg/ml, read-out: % survival tumor.
For series [7], the system named is OM-1. The series can be described thus: In vitro radiometric (BACTEC) growth inhibition of human tumor cell line OM-1 (colon). Conditions: for viability at 10 µg/mL: OM-1, 10 μg/ml. In kind it is cell-based.
Text: as §1, §2, §3, §4, §5, §6, §7

Series [8] deals with COLO320. The series is described as follows: In vitro radiometric (BACTEC) growth inhibition of human tumor cell line COLO320 (colon). The format is cell-based.
Text: as §1, with “N.Y. […]” for “N.Y.”
(§8) RADIOMETRIC MEASUREMENT OF GROWTH INHIBITION: Growth inhibition was assessed with the BACTEC System 460 (Johnston Laboratories, Towson, Md.) after addition of the antitumor agent to the cells in the respective growth medium containing ^14 C-glucose at a final concentration of 2 μCi/ml. […]
(§9) Two mls of the tumor cell suspension containing radioactive glucose were seeded into sterile, disposable 15 ml vials by injection through self-sealing rubber-aluminum caps. […] Chemotherapy sensitivity was calculated by comparing the growth index values of drug-treated vials to that observed in control vials. […]

The test system of series [9] is SKMES. The series is described as follows: In vitro radiometric (BACTEC) growth inhibition of human tumor cell line SKMES (lung). In kind it is cell-based.
Text: as §1, §2, §3, §4, §5, §6, §7

In series [10] the test system is CALU. The series can be described thus: In vitro radiometric (BACTEC) growth inhibition of human tumor cell line CALU (lung). In kind it is cell-based.
Text: as §1, with “N.Y. […]” for “N.Y.”
as §8, §9

The conditions of series [11]: background statement on marketed drug; cited from earlier work.
Setting [12] is: continuous exposure, read-out: IC 50.
Where [13] appears, read: HS578T, continuous exposure, read-out: IC 50.
Setting [14] is: 6 μg/ml, read-out: % survival tumor.
Where [15] appears, read: SKLU, read-out: % survival tumor.
Setting [16] is: SKLU, continuous exposure, read-out: IC 50.
Where [17] appears, read: OM-1, continuous exposure, read-out: IC 50.
[18] abbreviates: MCF7, MCF-7, continuous exposure, read-out: IC 50.

≈ marks a conversion by molar mass, not a printed value. Read-outs that look alike come from different tables or passages of the source.

Consider `Nc1nc2c(ncn2[C@H]2OC[C@H](O)[C@H](O)[C@@H]2O)c(=O)[nH]1` [(14), β-L-ribopyranosylguanine], for which the viability at 10 µg/mL in series [1] (read-out: % survival tumor) amounted to 94.8%. Besides, in [1] (setting [12]), the IC50 is more than 10 µg/mL. Besides, in series [2], the viability was 106%.
As to `O=c1ccn([C@H]2OC[C@H](O)[C@H](O)[C@@H]2O)c(=O)[nH]1` [(3), β-L-ribopyranosyluracil], the viability in series [2] came to 96%. Moreover, the viability at 10 µg/mL in series [3] (HS578T) stood at 86.7%. For the same compound, the IC50 in series [3] (setting [13]) was more than 10 µg/mL.
With `O=c1[nH]cc(F)c(=O)[nH]1` [Compound 5-FU, 5-fluorouracil, reference compound], the IC50 was 1.05 µg/mL (≈ 8.07 µM) in series [4]; less than 0.6 µg/mL in series [5] (MCF7); 1.47 µg/mL (≈ 11.3 µM) in series [7]; 0.61 µg/mL (≈ 4.69 µM) in series [1]; less than 0.6 µg/mL in series [8] (COLO 320, continuous exposure); less than 0.6 µg/mL in series [9]. Also, the IC50 in [10] (continuous exposure) and in [3] was less than 0.6 µg/mL throughout. Further, the viability at 6 µg/mL in series [4] (SKLU, 6 μg/ml, read-out: % survival tumor) came to 24.7%; in series [5] (MCF7, MCF-7, 6 μg/ml, read-out: % survival tumor), 4.2%; in series [6] it was 12.5%; in [7] (OM-1, 6 μg/ml, read-out: % survival tumor), 20.1%; in [1] (setting [14]) it was 5.7%; in series [8] (COLO 320, 6 μg/ml, read-out: % survival tumor), 1%. Moreover, the viability at 6 µg/mL is 29.1% in [9] (SKMES, 6 μg/ml, read-out: % survival tumor) and 9.9% in series [10] (setting [14]). Also, in series [11], the side effects result was “GI side effects like nausea, vomiting and diarrhea, leukopenia, thrombocytopenia, alopecia”.
As for `O=c1[nH]c(=O)n([C@@H]2OC[C@H](O)[C@H](O)[C@@H]2O)cc1F` [(18), α-L-ribopyranosyl-5-fluorouracil], the viability at 10 µg/mL in [4] (setting [15]) is 78.4%; in series [7] (read-out: % survival tumor), 82.5%; in series [1] (read-out: % survival tumor), 83.1%; in series [3] (HS578T) it was 83.6%. Moreover, the IC50 was 57.1 µg/mL (≈ 218 µM) in series [4] (setting [16]), 65.1 µg/mL (≈ 248 µM) in [7] (setting [17]), 119 µg/mL (≈ 454 µM) in series [1] (setting [12]) and 50.8 µg/mL (≈ 194 µM) in series [3] (setting [13]). The viability in [2] is 166%.
Regarding `Nc1ccn([C@H]2OC[C@H](O)[C@H](O)[C@@H]2O)c(=O)n1` [(8), β-L-ribopyranosylcytosine], the results for the viability at 10 µg/mL in [5] (read-out: % survival tumor), in [7] (read-out: % survival tumor) and in series [3] (HS578T) were 72.2%, 78.9% and 89.2%, respectively. Besides, the IC50 in series [5] (setting [18]), in series [7] (setting [17]) and in series [3] (setting [13]) was more than 10 µg/mL throughout. For the same compound, in series [2], the viability turned out to be 93.1%.
Consider `Nc1ncnc2c1ncn2[C@H]1OC[C@H](O)[C@H](O)[C@@H]1O` [(11)], for which the viability at 10 µg/mL in [7] (read-out: % survival tumor) was 41.6%; in series [3] (HS578T), 43.6%. In addition, the IC50 came to 8.3 µg/mL (≈ 31.1 µM) in series [7] (setting [17]) and 7.8 µg/mL (≈ 29.2 µM) in series [3] (setting [13]). Further, the viability in series [2] turned out to be 94.1%.
On to `O=c1[nH]c(=O)n([C@H]2OC[C@H](O)[C@H](O)[C@@H]2O)cc1F` [(5), β-L-ribopyranosyl-5-fluorouracil], for which the viability at 10 µg/mL in series [4] (setting [15]) came to 90.1%; in [5] (read-out: % survival tumor), 76.2%; in [9] (SKMES, 10 μg/ml, read-out: % survival tumor), 68.2%. Moreover, the IC50 in [4] (setting [16]) is more than 10 µg/mL; in [5] (setting [18]), more than 10 µg/mL; in series [9] (SKMES, continuous exposure, read-out: IC 50), more than 10 µg/mL. Moreover, the viability in series [2] was 116%.

Source of the values: patent US5885972A, “L-pyranosyl nucleosides” (Genencor International, Inc., priority 1996, dated 1999).
